From BindingDB's records for doi:10.1016/S1074-5521(99)80084-2 (Institute of Genetics and Molecular and Cellular Biology …, 1999)
pKi: −log10 of the molar value.

Tests used:
[1] = biological target: T1, Retinoic acid receptor alpha [200-419]/gamma [183-417] (Homo sapiens, UniProt P10276+P13631); assay: Competitive Assay; details: pH 8; 4 °C
T1 construct: 200-419; 183-417
T1 sequence (P13631 whole entry): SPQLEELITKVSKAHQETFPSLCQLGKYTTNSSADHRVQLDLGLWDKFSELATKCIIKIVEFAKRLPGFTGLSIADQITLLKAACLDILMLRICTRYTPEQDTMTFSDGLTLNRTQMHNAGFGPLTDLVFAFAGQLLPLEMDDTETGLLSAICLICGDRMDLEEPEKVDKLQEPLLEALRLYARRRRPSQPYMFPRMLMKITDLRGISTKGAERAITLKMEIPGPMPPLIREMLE
T1 sequence (P10276 whole entry): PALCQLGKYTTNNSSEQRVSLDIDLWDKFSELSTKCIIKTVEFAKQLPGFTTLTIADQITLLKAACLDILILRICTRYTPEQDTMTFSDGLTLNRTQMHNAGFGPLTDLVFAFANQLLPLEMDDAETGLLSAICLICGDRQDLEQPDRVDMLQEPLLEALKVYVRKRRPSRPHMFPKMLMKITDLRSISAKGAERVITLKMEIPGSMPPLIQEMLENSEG
Description: (§1) Competitive assay were perform with 5nM tritiated all-trans retinoic acid (t-RA; 5nM) with or without 100-fold excess of non-radioactive t-RA (500nM).

[2] = biological target: T2, Retinoic acid receptor alpha [200-419] (Homo sapiens, UniProt P10276); assay: Competitive Assay; details: pH 8; 4 °C
T2 construct: 200-419
T2 sequence (P10276 whole entry): T1 sequence (P10276 whole entry)
Description: as §1

Row | pKi [1] | pKi [2] | SMILES
1 | 9.00 | 8.60 | CC1(C)CC=C(c2cnc3ccccc3c2)c2cc(C(=O)Nc3ccc(C(=O)O)cc3)ccc21 [BMS614]
2 | 9.00 | 8.70 | CC1(C)C(=O)C(C)(C)c2cc(C(=O)Nc3ccc(C(=O)O)cc3)ccc21 [BMS753]
